From patent US7285567B2, “Halogenated benzamide derivatives” (Romark Laboratories, L.C., priority 2005, dated 2007)
Where two headings read alike, the source gives them in different places.

How the values were obtained:
Giardia intestinalis = assay: Antiparasite test by conventional means; assay type: cell-based; conditions: at concentrations of at least 50 μg/mL
Experimental: (§1) The above identified compounds according to Formula (IV) were tested by conventional means against Trichomis vaginalis, Giardia Intestinalis, and Trypanosoma brucei.

Trichomonas vaginalis = assay: Antiparasite test by conventional means; assay type: cell-based; conditions: at concentrations of at least 50 μg/mL
Experimental: as §1

Trypanosoma brucei = assay: Antiparasite test by conventional means; assay type: cell-based; conditions: at concentrations of at least 50 μg/mL
Experimental: as §1

clostridia = assay: organism not typed; assay type: cell-based; conditions: Clostridia (18 isolates), agar dilution, 48 h
[1] = system: hepatitis C virus (HCV) replicon; assay: HCV replication in AVA5 replicon cell culture, 3-day assay; assay type: cell-based; conditions: AVA5 cells
Experimental: (§2) Anti-Hepatitis C Virus (HCV) analyses and an assessment of cytotoxicity were performed in a 3-day assay in the HCV replicon-containing human hepatoblastoma cell line, AVA5 (Okuse, C., Rinaudo, J. A., Farrar, K., Wells, F. & Korba, B. E. Enhancement of antiviral activity against hepatitis C virus in vitro by interferon combination therapy. Antivir. Res. 65, 23-34 (2005)) as previously described (Blight, K. J., Kolykhalov, A. A. & Rice, C. M. Efficient initiation of HCV RNA replication in cell culture. Science 290, 1972-1974 (2000)).
(§3) Values presented (±standard deviations [S.D.]) were calculated by linear regression analysis using data combined from all treated cultures. S.D. were calculated using the standard error of regression generated from the linear regression analyses (QuattroPro™). EC50, EC90=drug concentration at which a 2-fold, or a 10-fold depression of HCV RNA (relative to the average levels in untreated cultures), respectively, was observed. CC50=drug concentration at which a 2-fold depression of neutral red dye uptake was observed relative to the average levels in untreated cultures. Selectivity index=CC50/EC50.

[2] = system: Paramyxovirus: Sendai virus; assay: microbe, parasite or virus in culture; assay type: cell-based; conditions: Sendai virus, 37RC cell culture (Table 1)
[3] = system: anaerobic Gram positive cocci; assay: CLSI agar dilution MIC, anaerobic clinical isolates; assay type: cell-based; conditions: Gram + cocci (16 isolates), 48 h
[4] = Cytotoxicity in AVA5 cells (neutral red dye uptake); assay type: cell-based, human; conditions: human, 2-fold depression of neutral red dye uptake
Experimental: as §2, §3

[5] = system: Rhabdovirus: Vesicular stomatitis virus; assay: microbe, parasite or virus in culture; assay type: cell-based
Influenza A: PR8 strain = assay: microbe, parasite or virus in culture; assay type: cell-based, Influenza A virus
[6] = Cytotoxicity in 2.2.15 cells (neutral red dye uptake); assay type: cell-based; conditions: human, 2-fold depression of neutral red dye uptake
Experimental: (§4) Anti-Hepatitis B Virus (HBV) analyses and an assessment of cytotoxicity were performed in a 9-day assay in the chronically-producing HBV human hepatoblastoma cell line, 2.2.15, as previously described (Korba, B. E. & Gerin, J. L. Use of a standardized cell culture assay to assess activities of nucleosides analogues against hepatitis B virus replication. Antivir. Res. 19, 55-70 (1992)).
(§5) Values presented (±standard deviations [S.D.]) were calculated by linear regression analysis using data combined from all treated cultures. S.D. were calculated using the standard error of regression generated from linear regression analyses (QuattroPro™). EC50, EC90=drug concentration at which a 2-fold, or a 10-fold depression of HBV DNA (relative to the average levels in untreated cultures), respectively, was observed, CC50=drug concentration at which a 2-fold depression of neutral red dye uptake (relative to the average levels in untreated cultures) was observed, The EC90 values were used for the calculation of the Selectivity Indexes [S.I.] since at least a 3-fold depression of HBV levels is typically required to achieve statistical significance in this assay system. HBV R.I.=intracellular HBV DNA replication intermediate.

[7] = system: anaerobic Gram-positive non-sporeforming rods; assay: CLSI agar dilution MIC, anaerobic clinical isolates; assay type: cell-based; conditions: Gram + rods (14 isolates), 48 h
B. fragilis group = assay: as above; assay type: cell-based; conditions: Bacteroides fragilis, B. fragilis gp (40 isolates), 48 h, 35° C.
Experimental: (§6) Methods. Recent clinical anaerobic isolates (2000 to date) comprised 40 B. fragilis group, 26 Prevotella/Porphyromonas, 28 fusobacteria, 16 anaerobic Gram positive cocci, 14 anaerobic Gram-positive non-sporeforming rods and 18 clostridia. CLSI agar dilution MIC methodology with enriched Brucella blood agar and inocula of 1×10^5 cfu/spot was used. Plates were incubated in an anaerobic glove box at 35° C. for 48 h. Results.

Prevotella/Porphyromonas = assay: as above; assay type: cell-based; conditions: Prev/Porphy (26 isolates), 48 h
Experimental: as §6

fusobacteria = assay: as above; assay type: cell-based; conditions: Fusobacteria (28 isolates), 48 h
Experimental: as §6

Hepatitis B Virus (HBV) = assay: HBV replication in 2.2.15 cell culture, 9-day assay; assay type: cell-based; conditions: for EC50 / EC90: Hepatitis B virus, 2.2.15 cells
Experimental: as §4, §5

[8] = system: anaerobic bacteria (all 142 isolates); assay: CLSI agar dilution MIC, all anaerobic clinical isolates; assay type: cell-based
[9] = system: H3N2 influenza virus, type A; assay: Multiple cycle CPE inhibition assay on MDCK cell monolayers; assay type: cell-based; conditions: 0% EMEM + Hepes + Trypsin
Experimental: EC50 (μg/mL) values for 2-(acetolyloxy)-3-methyl-N-(5-bromo-2-thiazolyl)benzamide (RM4803), 2-(acetolyloxy)-3-methyl-N-(5-chloro-2-thiazolyl)benzamide (RM4804), and 2-(acetolyloxy)-3-methoxy-N-(5-bromo-2-thiazolyl)benzamide (RM4806), on Human Rhinovirus Type 39 (HRV-39), and H3N2 influenza virus, type A, using a multiple cycle CPE inhibition assay on OH-I Hela and Madin Darby Canine Kidney (MDCK) cell monolayers, respectively, were measured by microscopic and spectrophotometric methods. Pirodavir and Oseltamivir were included as positive controls.

[10] = All (142 isolates), agar dilution, 48 h

CC(=O)Oc1c(C)cccc1C(=O)Nc1ncc(Br)s1 [RM-4803, 2-(acetolyloxy)-3-methyl-N-(5-bromo-2-thiazolyl)benzamide]
antiparasite activity (Giardia intestinalis): failed to exhibit antiparasite activitity | antiparasite activity (Trichomonas vaginalis): failed to exhibit antiparasite activitity | antiparasite activity (Trypanosoma brucei): failed to exhibit antiparasite activitity | MIC50 (clostridia; read-out: MIC50): > 32 µg/mL | MIC90 (clostridia; read-out: MIC90): > 32 µg/mL | Selectivity Index ([1]; CC50/EC50): 7.6 | EC50 ([1]; Hepatitis C virus, 2-fold depression of HCV RNA, read-out: EC50): 37 ± 2.7 µM | EC90 ([1]; Hepatitis C virus, 10-fold depression of HCV RNA, read-out: EC90): 98 ± 9.3 µM | EC50 ([2]; Respirovirus muris): 1100 nM | SI (selectivity index) = CC50/EC50 ([2]; CC50 by MTT): > 125 | MIC50 [3]: > 32 µg/mL | MIC90 [3]: > 32 µg/mL | CC50 at 3 day [4]: 282 ± 21 µM | EC50 ([5]; MA104): 2800 nM | SI (selectivity index) = CC50/EC50 ([5]; MA104 cell culture, CC50 by MTT): > 50 | SI (selectivity index) = CC50/EC50 (Influenza A: PR8 strain; Influenza A PR8 strain, MDCK cell culture, CC50 by MTT): > 50 | EC50 (Influenza A: PR8 strain; Influenza A virus, PR8, MDCK): 2800 nM | CC50 at 9 day [6]: > 1 mM | MIC50 [7]: > 32 µg/mL | MIC90 [7]: > 32 µg/mL | MIC50 (B. fragilis group): > 32 µg/mL | MIC90 (B. fragilis group): > 32 µg/mL | MIC50 (Prevotella/Porphyromonas): > 32 µg/mL | MIC90 (Prevotella/Porphyromonas): > 32 µg/mL | MIC50 (fusobacteria): > 32 µg/mL | MIC90 (fusobacteria): > 32 µg/mL | EC50 (Hepatitis B Virus (HBV); 2-fold depression of HBV DNA, read-out: Extracellular Virion DNA EC50): 6.3 ± 0.7 µM | EC90 (Hepatitis B Virus (HBV); 10-fold depression of HBV DNA, read-out: Extracellular Virion DNA EC90): 15 ± 1.1 µM | EC50 (Hepatitis B Virus (HBV); intracellular HBV DNA replication intermediate, 2-fold depression, read-out: Intracellular HBV R.I. EC50): 12 ± 1.5 µM | EC90 (Hepatitis B Virus (HBV); intracellular HBV DNA replication intermediate, 10-fold depression, read-out: Intracellular HBV R.I. EC90): 50 ± 5.5 µM | Selectivity Index R.I. (Hepatitis B Virus (HBV); calculated with EC90 values (CC50/EC90), HBV R.I.): >20 | Selectivity Index Virion (Hepatitis B Virus (HBV); calculated with EC90 values (CC50/EC90), virion DNA): >67 | MIC50 [8, 10]: > 32 µg/mL | MIC90 [8, 10]: > 32 µg/mL | Activity against anaerobic bacteria groups (summary in words) ([8]; summary of MIC results): without significant activity | EC50 ([9]; microscopic reading, read-out: EC50, Microscopic): 0.45 µg/mL | EC50 ([9]; spectrophotometric reading, read-out: EC50, Spectrophotometer): 0.18 µg/mL
